{
  "source": "paper PMC10283052",
  "about": "“Intranasal delivery of mitochondrial protein humanin rescues cell death and promotes mitochondrial function in Parkinson's disease” (Theranostics, 2023)",
  "key": {"SH-SY5Y cells [1]": {"system": "SH-SY5Y cells", "experiment": "Real-time qPCR of mitochondrial rRNA and humanin transcripts", "assay_type": "cell-based, human", "settings": "IMT1 co-treated with HN for 24 h, dose-dependent", "procedure": "For real-time qPCR, total RNA was extracted using TRIzol reagent (Thermo Fisher Scientific). cDNA was synthesized using a cDNA synthesis kit (Bioneer Corporation), according to the manufacturer's protocol. The mRNA levels were analyzed in a LightCycler 96 (Roche, Basel, Switzerland) using SYBR Green I master mix and SensiFAST™ SYBR® No-ROX Kit (Bioline, Paris, France). B2M (beta-2-microglobulin) gene expression was used to normalize gene expression data. The primer sequences used in this experiment are in Table S2."}, "[2]": {"system": "differentiated PC12 cells", "experiment": "Pathway inhibitors on HN effects in MPP+-challenged differentiated PC12 cells", "assay_type": "cell-based, rat", "settings": "for neuroprotective effect of HN against MPP+ neurotoxicity (MTT viability): inhibitor 2 h before HN 10 μM, then MPP+ 1 mM 24 h, MK2206 1 μM, wortmannin 1 μM, U0126 10 μM", "procedure": "For neuronal differentiation of PC12 cells, the cells were grown in DMEM containing 1.5% horse serum, 1.5% FBS, 1% P/S, and 100 ng/mL nerve growth factor (NGF, Thermo Fisher Scientific) every 2 days. PC12 cells were differentiated for 7 days and used for subsequent experiments.\nMouse brain tissue samples and cells were homogenized in radioimmunoprecipitation assay (RIPA) buffer (Cell Signaling, Danvers, MA, USA) in the presence of a protease and phosphatase inhibitor cocktail (Thermo Fisher Scientific). The samples were sonicated on ice, and the supernatant was collected after centrifugation at 4°C at 10,000 g for 5 min. The protein samples were loaded and separated using Tris-glycine SDS-PAGE. To detect the HN peptide, the proteins were separated into three layers of tricine SDS-PAGE, as previously described. The separated proteins were transferred to nitrocellulose membranes (GenDEPOT, Barker, TX, USA). The membranes were blocked for 0.5 h, followed by incubation with appropriate primary antibodies overnight at 4°C. The primary antibodies used were as follows: anti-tyrosine hydroxylase (Cat # P40101, Pel-Freez Biologicals), anti-HN (Cat # RA19000, Neuromics), anti-β-actin (Cat # GTX109639, GeneTex, Irvine, CA, USA), and anti-GAPDH (Cat # AM4300, Thermo Fisher Scientific). After washing, the membranes were incubated with horseradish peroxidase-labeled secondary antibodies (Cell Signaling Technology) and visualized using enhanced chemiluminescence reagents (DoGen, Seoul, South Korea). The results were analyzed using the ImageJ densitometry system. In order to detect circulating humanin in human plasma samples, proteins were extracted by trichloroacetic acid (TCA) precipitation. Loading of an equal amount of protein was confirmed by Coomassie staining of plasma samples which were depleted of albumin by Minute™ Albumin Depletion Reagent (Invent Biotechnologies, Plymouth, MN, USA).\nFollowing treatment with the aforementioned reagents, the cells were washed and treated with 3-(4,5-dimethylthiazol-2-yl)-2,5-diphenyl-tetrazolium bromide (MTT, Thermo Fisher Scientific). Briefly, the cells were seeded in a 96-well plate at a density of 5 × 10^3 cells/well. After 24 h, a neurotoxin 1-methyl-4-phenylpyridinium (MPP^+) (Sigma-Aldrich) was applied to induce toxicity in neuronal cells. Next, the cells were incubated with MTT for 4 h, and formazan crystals were solubilized using DMSO. Absorbance was measured using a multi-plate reader at a wavelength of 570 nm, and the viability of the cells was recorded as a percentage of the control."}, "[3]": {"system": "transgenic mouse model of AD", "settings": "without altering Aβ production; cited from earlier work", "source_text": "Humanin is the first peptide representing a novel group of naturally occurring bioactive peptides encoded by the mitochondrial genome, termed MDPs. Since its discovery in 2001 [12], humanin has been proposed as a potential protective peptide for neurological disorders, cardiovascular diseases, and metabolic dysfunction. The central role of humanin in the protective response has been extensively studied in AD [13]. Maftei et al., using affinity mass spectrometry, identified that humanin can directly bind to amyloid β (Aβ), which subsequently disrupts the oligomerization of Aβ [57]. Further ..."}, "SH-SY5Y cells [4]": {"system": "SH-SY5Y cells", "experiment": "FITC-HN immunofluorescence in cells", "assay_type": "cell-based, human", "procedure": "For HN treatment, HN was synthesized as per Fmoc-based SPPS at GL Biochem (Shanghai, China). The lyophilized synthesized HN peptide or HN peptide conjugated with fluorescein isothiocyanate (FITC-HN) was dissolved in Dimethyl sulfoxide (DMSO) and incubated at 37 ℃ with mild stirring (100 rpm) for 1 h to prepare a 10 mM stock solution. The stock solutions were kept at -20 ℃ until use.\nFor staining, the cells were seeded on PDL-coated glass slides and treated as indicated above. The samples were fixed using methanol and permeabilized using 0.1% Triton X-100 in PBS. […] Fluorescent images were captured at the Neuroscience Translational Research Solution Center (Busan, South Korea) using an LSM 700 confocal microscope (Zeiss, Jena, Germany). The mitochondrial network morphology was assessed using the FIJI/ImageJ software as described previously."}, "[5]": {"experiment": "Brain delivery after intranasal FITC-HN", "assay_type": "in vivo, mouse", "procedure": "For intranasal HN treatment, the synthetic HN peptide was delivered according to a procedure reported by Capsoni et al. The synthetic HN peptide was diluted in ddH2O to a concentration of 0.1 and 5 mg/kg for mice (total volume of 40 μL) at 37 ℃ with mild stirring. The mice were held firmly in one hand in a supine position with their head at 90°. Synthetic HN was administered in the form of 5-μL drops over 20 min in alternating nostrils every 3 min. After administration, the heads of the mice were held in the same position to prevent loss of the applied solution from the nares.\nTo stain the mouse brain tissue samples, transcardial perfusion was performed using PBS and 4% paraformaldehyde in PBS. The brain and trigeminal ganglia were removed, post-fixed using 4% paraformaldehyde in PBS, and stored in a 30% sucrose solution at 4 ℃ until they sank. Coronal sections were prepared (thickness: 10 µm) using a sliding microtome. After blocking with 5% BSA, the samples were incubated with the appropriate primary antibody as mentioned above. […] To enhance immune signals in immunohistochemistry, a Vectastain Elite ABC Standard Kit (Vector Laboratories) was used, as per the manufacturer's instructions. The stained sections were scanned using a Pannormic MIDI scanner (3[…], Budapest, Hungary) at the Neuroscience Translational Research Solution Center. Unbiased stereological analyses were performed as previously described. […] Fluorescent images were captured at the Neuroscience Translational Research Solution Center (Busan, South Korea) using an LSM 700 confocal microscope (Zeiss, Jena, Germany). Mitochondrial network morphology was further assessed using the FIJI/ImageJ software as described previously.\nA commercially available ELISA kit (MyBioSource, San Diego, CA, USA) was used to measure plasma and brain HN levels. To measure the protein levels of HN, brain homogenates (100 μg protein/well) and 100 μL of plasma samples were loaded onto competitive ELISA plates according to the manufacturer's instructions. The absorbance was measured using a microplate reader (Molecular Devices, Sunnyvale, CA, USA) at a wavelength of 450 nm."}, "[6]": {"settings": "wortmannin 1 μM pre-treatment, HN 10 μM, MPP+ 1 mM"}},
  "note": "“Also recorded” adds a separate entry of the source.",
  "data": [
    {"compound": "Cc1ccccc1-c1cc(=O)oc2cc(OC(C)C(=O)N(C)C)ccc12", "note": "(stereo not shown) [IMT1, reference compound]", "values": [
      {"measurement": "humanin transcripts induced by HN peptide", "setting": "SH-SY5Y cells [1]", "result": "markedly attenuated humanin transcripts"}
    ]},
    {"compound": "NC1(c2ccc(-c3nc4ccn5c(=O)[nH]nc5c4cc3-c3ccccc3)cc2)CCC1", "note": "[MK-2206]", "values": [
      {"measurement": "neuroprotective effect of HN against MPP+ neurotoxicity (MTT viability)", "setting": "[2]", "result": "abolished the neuroprotective effect of HN"}
    ]},
    {"compound": "N#CC(=C(/N)Sc1ccccc1N)/C(C#N)=C(/N)Sc1ccccc1N", "note": "[U0126]", "values": [
      {"measurement": "neuroprotective effect of HN against MPP+ neurotoxicity (MTT viability)", "setting": "[2]", "result": "did not alter cell viability"}
    ]},
    {"compound": "COC[C@H]1OC(=O)c2coc3c2[C@@]1(C)C1=C(C3=O)[C@@H]2CCC(=O)[C@@]2(C)C[C@H]1OC(C)=O", "note": "[wortmannin]", "values": [
      {"measurement": "neuroprotective effect of HN against MPP+ neurotoxicity (MTT viability)", "setting": "[2]", "result": "abolished the neuroprotective effect of HN"},
      {"measurement": "induction of intracellular humanin by HN treatment, western blot", "setting": "[2]; wortmannin 1 μM pre-treatment 1 h, HN 10 μM, 24 h, MPP+-exposed cells", "result": "significantly inhibited; also recorded: blocked the induction of HN expression"},
      {"measurement": "HN-enhanced mitochondrial mass", "setting": "[2]; [6]", "result": "significantly blocked the impact of HN on enhancing mitochondrial mass"},
      {"measurement": "HN-promoted mitochondrial biogenesis, western blot", "setting": "[2]; [6]", "result": "significantly blocked"}
    ]},
    {"compound": "S14G-HN: a highly potent human derivative (MAPRGFSCLLLLTGEIDLPVKRRA; Humanin; UniProt Q8IVG9 1-24, looked up, variant S14G)", "values": [
      {"measurement": "total amyloid plaque burden in cerebellum, hippocampus and cortex", "setting": "[3]", "result": "significantly reduced the total amyloid plaque burden"}
    ]},
    {"compound": "fluorescein isothiocyanate-conjugated humanin [FITC-HN]", "values": [
      {"measurement": "intracellular humanin signal (antibody staining)", "setting": "SH-SY5Y cells [4]; 24 h FITC-HN treatment, untreated cells show weak signal", "result": "strong signal of intracellular humanin"},
      {"measurement": "intracellular FITC fluorescence signal", "setting": "SH-SY5Y cells [4]; 24 h after FITC-HN treatment, suggests degradation of the FITC-HN peptide", "result": "no detectable fluorescent signal"},
      {"measurement": "intracellular FITC fluorescence signal", "setting": "SH-SY5Y cells [4]; within 30 min of FITC-HN treatment, confocal immunofluorescence", "result": "strong intracellular fluorescence signal"},
      {"measurement": "FITC-HN distribution in trigeminal nerve endoneurium", "setting": "[5]; cross-sections of trigeminal nerves after intranasal administration, transgenic PD mice", "result": "diffuse to punctate in the perineural space of the endoneurium"},
      {"measurement": "FITC-HN signal in trigeminal nerve perineurium region", "setting": "[5]; cross-sections of trigeminal nerves, compared with endoneurium", "result": "more prominent FITC-HN signal"},
      {"measurement": "duration of widespread brain distribution after intranasal administration", "setting": "[5]; human α-Syn transgenic PD mice, ELISA of brain regions (CB, OB, ST, HIP, SN, CTX)", "result": "up to 1 h"},
      {"measurement": "time after intranasal injection at which FITC-HN is detectable in midbrain (VTA, aqueduct)", "setting": "[5]; human α-Syn-overexpressing transgenic PD mice, fluorescence imaging", "result": "≤ 30", "unit": "min"},
      {"measurement": "FITC-HN localisation in brain parenchyma", "setting": "[5]; within 30 minutes after intranasal treatment, GFAP staining", "result": "found in microvascular endothelial cells surrounded by astrocytic endfeet"}
    ]}
  ]
}
